Data reported in US9738604B2, “Ethynylbenzene derivatives” (Duke University, priority 2010, dated 2017).
In brackets after ≈: the same amount, converted by molar mass. Where two headings read alike, the source gives them in different places.

Tests used:
[1] = tested on: Acinetobacter Baumannii antibiotic susceptible strain (Sus. A.b. Isolate); test: Disk diffusion assay, antibiotic susceptible strain; format: cell-based; design: key to diameter of the growth inhibition, Sus. A.b. Isolate: A: no detectable inhibition; B: 6-10 mm; C: 11-15 mm; D: ≧16; conditions: 2 μg of compound per disc, disc 6 mm in diameter; for zone of inhibition at 2 µg/disc: Acinetobacter baumannii, read-out: diameter of the growth inhibition, Sus. A.b. Isolate
[2] = tested on: Acinetobacter Baumannii multidrug-resistant strain (MDR A.b. Isolate); test: Disk diffusion assay, multidrug-resistant strain; format: cell-based; design: key to diameter of the growth inhibition, MDR A.b. Isolate: A: no detectable inhibition; B: 6-10 mm; C: 11-15 mm; D: ≧16; conditions: 2 μg of compound per disc, disc 6 mm in diameter; for zone of inhibition at 2 µg/disc: Acinetobacter baumannii, read-out: diameter of the growth inhibition, MDR A.b. Isolate
N. gonorrhoeae FA19 = test: MIC, N. gonorrhoeae drug-sensitive strain; format: cell-based; conditions: for MIC: Neisseria gonorrhoeae, read-out: MIC N. gonorrhoeae FA 19
N. gonorrhoeae 35/02 [3] = test: MIC, N. gonorrhoeae drug-resistant strain; format: cell-based; conditions: drug-resistant strain 35/02; for MIC: Neisseria gonorrhoeae
E. coli W3110 = test: microbe, parasite or virus in culture; format: cell-based; conditions: for MIC: Escherichia coli, W3110, 22 h, read-out: MIC E. coli W3110
E. coli W3110RL = test: microbe, parasite or virus in culture; format: cell-based; conditions: for MIC: Escherichia coli, W3110RL, 22 h, read-out: MIC E. coli W3110RL; for MIC E. coli W3110RL: E. coli with lpxC of R. leguminosarum, 22 hours at 37° C., MTT
P. aeruginosa (PAO1) = test: MIC, P. aeruginosa; format: cell-based; conditions: for MIC: Pseudomonas aeruginosa, PAO1, 22 h, read-out: MIC P. aeruginosa (PAO1); for MIC P. aeruginosa (PAO1): 22 hours at 37° C., MTT
E. coli W3110PA = test: microbe, parasite or virus in culture; format: cell-based; conditions: for MIC: Escherichia coli, W3110PA, 22 h, read-out: MIC E. coli W3110PA; for MIC E. coli W3110PA: E. coli with lpxC of P. aeruginosa, 22 hours at 37° C., MTT
N. gonorrhoeae 35/02 [4] = conditions: resistance profile of strain 35/02; cited from earlier work

CC1(C)S[C@@H]2[C@H](NC(=O)C(C(=O)O)c3ccccc3)C(=O)N2[C@H]1C(=O)O (stereo partly drawn) [Carbenicillin]
diameter of the growth inhibition, Sus. A.b. Isolate [1]: A | diameter of the growth inhibition, MDR A.b. Isolate [2]: A

C[C@@H](O)[C@H](NC(=O)c1ccc(C#Cc2ccc(CN3CCOCC3)cc2)cc1)C(=O)NO [drawing 321]
MIC (N. gonorrhoeae FA19): 8 µg/mL (≈ 18.3 µM) | MIC (N. gonorrhoeae 35/02 [3]): 8 µg/mL (≈ 18.3 µM)

CC(C)(O)[C@H](NC(=O)c1ccc(C#CC#Cc2ccccc2N)cc1)C(=O)NO [CPD-066, (S)-4-((2-aminophenyl)buta-1,3-diynyl)-N-(3-hydroxy-1-(hydroxyamino)-3-methyl-1-oxobutan-2-yl)benzamide]
MIC (N. gonorrhoeae FA19): 0.1 to 1 µg/mL (≈ 0.255 to 2.55 µM) | MIC (N. gonorrhoeae 35/02 [3]): 2 to 4 µg/mL (≈ 5.11 to 10.2 µM)

C[C@@H](O)[C@H]1C(=O)N2C(C(=O)O)=C(SCCN=CN)C[C@H]12 [Imipenem]
zone of inhibition at 2 µg/disc [1]: ≥ 16 mm | diameter of the growth inhibition, MDR A.b. Isolate [2]: A

Polymyxin B
diameter of the growth inhibition, Sus. A.b. Isolate [1]: B (6-10 mm) | diameter of the growth inhibition, MDR A.b. Isolate [2]: B (6-10 mm)

CN(C)[C@@H]1C(O)=C(C(N)=O)C(=O)[C@@]2(O)C(O)=C3C(=O)c4c(O)cccc4[C@@](C)(O)[C@H]3C[C@@H]12 [Tetracycline]
zone of inhibition at 2 µg/disc [1]: 6 to 10 mm | diameter of the growth inhibition, MDR A.b. Isolate [2]: A

CC(C)(O)[C@H](NC(=O)c1ccc(C#CC#Cc2ccc(N)cc2)cc1)C(=O)NO [CPD-037, (2S)-2-({4′-[4′-(4′-aminophenyl)buta-1′,3′-diyn-1-yl]phenyl}formamido)-N,3′-dihydroxy-3′-methylbutanamide]
MIC (E. coli W3110): < 1 µg/mL | MIC (E. coli W3110RL): 1 to 10 µg/mL (≈ 2.55 to 25.5 µM) | MIC (P. aeruginosa (PAO1)): < 1 µg/mL | MIC (E. coli W3110PA): < 1 µg/mL | zone of inhibition at 2 µg/disc [1]: 11 to 15 mm | zone of inhibition at 2 µg/disc [2]: 6 to 10 mm

O=C(O)c1cn(C2CC2)c2cc(N3CCNCC3)c(F)cc2c1=O [Ciprofloxacin]
zone of inhibition at 2 µg/disc [1]: ≥ 16 mm | diameter of the growth inhibition, MDR A.b. Isolate [2]: A

penicillin
MIC (N. gonorrhoeae 35/02 [4]): 6 µg/mL

O=C(N[C@H](CO)[C@H](O)c1ccc([N+](=O)[O-])cc1)C(Cl)Cl [Chloramphenicol]
zone of inhibition at 2 µg/disc [1]: 6 to 10 mm | diameter of the growth inhibition, MDR A.b. Isolate [2]: A

C[C@@](O)(C(F)F)[C@H](NC(=O)c1ccc(C#CC#Cc2ccccc2N)cc1)C(=O)NO [CPD-067, 4-((2-aminophenyl)buta-1,3-diynyl)-N-((2S,3S)-4,4-difluoro-3-hydroxy-1-(hydroxyamino)-3-methyl-1-oxobutan-2-yl)benzamide]
MIC (N. gonorrhoeae FA19): < 0.1 µg/mL | MIC (N. gonorrhoeae 35/02 [3]): 0.1 to 1 µg/mL (≈ 0.234 to 2.34 µM) | zone of inhibition at 2 µg/disc [1]: 6 to 10 mm | zone of inhibition at 2 µg/disc [2]: 6 to 10 mm

C[C@](O)(c1ccc(O)cc1)[C@H](NC(=O)c1ccc(C#CC#Cc2ccc(N)cc2)cc1)C(=O)NO [CPD-051, 4-((4-aminophenyl)buta-1,3-diynyl)-N-((2S)-3-hydroxy-1-(hydroxyamino)-3-(4-hydroxyphenyl)-1-oxobutan-2-yl)benzamide]
MIC (E. coli W3110): < 1 µg/mL | MIC (E. coli W3110RL): 51 to 100 µg/mL (≈ 109 to 213 µM) | MIC (P. aeruginosa (PAO1)): < 1 µg/mL | MIC (E. coli W3110PA): < 1 µg/mL | diameter of the growth inhibition, Sus. A.b. Isolate [1]: A | diameter of the growth inhibition, MDR A.b. Isolate [2]: A

CC(C)(N)[C@H](NC(=O)c1ccc(C#CC#Cc2ccccc2N)cc1)C(=O)NO [CPD-065, (S)-N-(3-amino-1-(hydroxyamino)-3-methyl-1-oxobutan-2-yl)-4-((2-aminophenyl)buta-1,3-diynyl)benzamide]
MIC (N. gonorrhoeae FA19): 0.1 to 1 µg/mL (≈ 0.256 to 2.56 µM) | MIC (N. gonorrhoeae 35/02 [3]): 2 to 4 µg/mL (≈ 5.12 to 10.2 µM)

C[C@@H](O)[C@H](NC(=O)c1ccc(C#CC#Cc2ccc(N)cc2)cc1)C(=O)NO [CPD-011, (2S,3R)-2-{4′-[(4″-aminophenyl)buta-1′,3′-diynyl]benzamido}-1,3-dihydroxybutanamide]
MIC E. coli W3110 (E. coli W3110): A (key: A: <1 μg/mL; B: 1-10 μg/mL; C: 11-50 μg/mL; D: 51-100 μg/mL; E: >100 μg/mL) | MIC E. coli W3110RL (E. coli W3110RL): B (1-10 μg/mL) | MIC P. aeruginosa (PAO1) (P. aeruginosa (PAO1)): A (<1 μg/mL) | MIC E. coli W3110PA (E. coli W3110PA): A (<1 μg/mL) | MIC N. gonorrhoeae FA 19 (N. gonorrhoeae FA19): C (2-4 μg/mL) | MIC N. gonorrhoeae 35/02 (N. gonorrhoeae 35/02 [3]): D (5-7 μg/mL) | diameter of the growth inhibition, Sus. A.b. Isolate [1]: A | diameter of the growth inhibition, MDR A.b. Isolate [2]: A

C[C@@H](O)[C@H](NC(=O)c1ccc(C#CC#Cc2ccccc2N)cc1)C(=O)NO [CPD-013, (2S,3R)-2-{4′-[(2″-aminophenyl)buta-1′,3′-diynyl]benzamido}-1,3-dihydroxybutanamide]
MIC E. coli W3110 (E. coli W3110): A (key: A: <1 μg/mL; B: 1-10 μg/mL; C: 11-50 μg/mL; D: 51-100 μg/mL; E: >100 μg/mL) | MIC E. coli W3110RL (E. coli W3110RL): C (11-50 μg/mL) | MIC P. aeruginosa (PAO1) (P. aeruginosa (PAO1)): B (1-10 μg/mL) | MIC E. coli W3110PA (E. coli W3110PA): A (<1 μg/mL) | MIC N. gonorrhoeae FA 19 (N. gonorrhoeae FA19): B (0.1-1 μg/mL) | MIC N. gonorrhoeae 35/02 (N. gonorrhoeae 35/02 [3]): C (2-4 μg/mL) | diameter of the growth inhibition, Sus. A.b. Isolate [1]: A | diameter of the growth inhibition, MDR A.b. Isolate [2]: A

C[C@@H](O)[C@H](NC(=O)c1ccc(C#CC#Cc2cccc(N)c2)cc1)C(=O)NO [CPD-012, (2S,3R)-2-{4′-[(3″-aminophenyl)buta-1′,3′-diynyl]benzamido}-1,3-dihydroxybutanamide]
MIC E. coli W3110 (E. coli W3110): A (key: A: <1 μg/mL; B: 1-10 μg/mL; C: 11-50 μg/mL; D: 51-100 μg/mL; E: >100 μg/mL) | MIC E. coli W3110RL (E. coli W3110RL): B (1-10 μg/mL) | MIC P. aeruginosa (PAO1) (P. aeruginosa (PAO1)): A (<1 μg/mL) | MIC E. coli W3110PA (E. coli W3110PA): A (<1 μg/mL) | diameter of the growth inhibition, Sus. A.b. Isolate [1]: A | diameter of the growth inhibition, MDR A.b. Isolate [2]: A

CC(C)(N)[C@H](NC(=O)c1ccc(C#CC#Cc2ccc(N)cc2)cc1)C(=O)NO [CPD-040, (2S)-3-amino-2-({4′-[4′-(4′-aminophenyl)buta-1′,3′-diyn-1-yl]phenyl}formamido)-N-hydroxy-3-methylbutanamide]
MIC (E. coli W3110): < 1 µg/mL | MIC (E. coli W3110RL): 1 to 10 µg/mL (≈ 2.56 to 25.6 µM) | MIC (P. aeruginosa (PAO1)): < 1 µg/mL | MIC (E. coli W3110PA): < 1 µg/mL | MIC (N. gonorrhoeae FA19): 2 to 4 µg/mL (≈ 5.12 to 10.2 µM) | MIC (N. gonorrhoeae 35/02 [3]): 5 to 7 µg/mL (≈ 12.8 to 17.9 µM) | zone of inhibition at 2 µg/disc [1]: 6 to 10 mm | zone of inhibition at 2 µg/disc [2]: 6 to 10 mm

C[C@@](O)(C(F)F)[C@H](NC(=O)c1ccc(C#CC#Cc2ccc(N)cc2)cc1)C(=O)NO [CPD-058, 4-((4-aminophenyl)buta-1,3-diynyl)-N-((2S,3S)-4,4-difluoro-3-hydroxy-1-(hydroxyamino)-3-methyl-1-oxobutan-2-yl)benzamide]
MIC (E. coli W3110): < 1 µg/mL | MIC (E. coli W3110RL): < 1 µg/mL | MIC (P. aeruginosa (PAO1)): < 1 µg/mL | MIC (E. coli W3110PA): < 1 µg/mL | zone of inhibition at 2 µg/disc [1]: 11 to 15 mm | zone of inhibition at 2 µg/disc [2]: 11 to 15 mm

CO/N=C(\C(=O)N[C@@H]1C(=O)N2C(C(=O)O)=C(CSc3nc(=O)c(=O)[nH]n3C)CS[C@H]12)c1csc(N)n1 [ceftriaxone, reference compound]
diameter of the growth inhibition, Sus. A.b. Isolate [1]: A | diameter of the growth inhibition, MDR A.b. Isolate [2]: A | MIC (N. gonorrhoeae 35/02 [4]): 0.12 µg/mL (≈ 0.216 µM)

CSCC[C@H](NC(=O)c1ccc(C#CC#Cc2ccc(N)cc2)cc1)C(=O)NO [CPD-028, (2S)-2-({4′-(4′-(4′-aminophenyl)buta-1′,3′-diyn-1-yl]phenyl}formamido)-N-hydroxy-4-(methylsulfanyl)butanamide]
MIC E. coli W3110 (E. coli W3110): A (key: A: <1 μg/mL; B: 1-10 μg/mL; C: 11-50 μg/mL; D: 51-100 μg/mL; E: >100 μg/mL) | MIC E. coli W3110RL (E. coli W3110RL): E (>100 μg/mL) | MIC P. aeruginosa (PAO1) (P. aeruginosa (PAO1)): E (>100 μg/mL) | MIC E. coli W3110PA (E. coli W3110PA): E (>100 μg/mL)
